Test results: patent publication US4122077A, “Somatostatin analogs” (American Home Products Corporation, priority 1977, dated 1978)
Several values for one entry are separate records, joined by “and”; a condition that tells them apart may be missing. Equal values may be shown once. Where a SMILES comes first, the peptide text is derived from it. Bridges are numbered along the chain shown (N, C = ends). [ ]: non-standard residue; d: D form.

Experiments:
glucagon = assay: Suppression of growth hormone, glucagon and insulin (arginine-stimulated, nembutal rats): glucagon; type: in vivo; details: arginine challenge
Protocol: (§1) Albino male rats are arranged in three groups (nine rats/group) and injected i.p. with nembutal at 50mg/kg. 15 minutes after the nembutal injection they are injected s.c. according to group with (a) test compound, typically 10-2000 μg/kg.; (b) SRIF 200 μg/kg.; or (c) physiological saline. 10 minutes later 0.5 ml. of arginine (300 mg/ml., pH 7.2) is injected into the heart. The rats are decapitated 5 minutes after receiving the arginine, and the blood is collected into Trasylol-EDTA. Appropriate aliquots are then assayed for growth hormone, glucagon and insulin. […] Comparisons between control and experimental values are statistically evaluated by the analysis of variants method and statistical significance (p) at 0.05 or lower is used as the index of activity.

growth hormone = assay: Suppression of growth hormone, glucagon and insulin (arginine-stimulated, nembutal rats): GH; type: in vivo
Protocol: as §1

insulin = assay: Suppression of growth hormone, glucagon and insulin (arginine-stimulated, nembutal rats): insulin; type: in vivo; details: arginine challenge
Protocol: as §1

growth hormone (GH) = assay: Suppression of growth hormone (duration of activity after sc injection); type: in vivo, rats
Protocol: A subcutaneous (sc) injection of peptide solubilized or suspended in physiological saline, is given to Charles River CD® nonfasted male rats. Matched saline control solution sc injected rats serve as control animals so that every experimental rat is paired with a control rat. The rats are kept in separate cages and 20 minutes before the end of the test time period they are given an intraperitoneal (i.p.) injection of Nembutal® at a dose of 50 mg/kg. Blood samples are obtained by cardiac puncture and the plasma separated for the radioimmunoassay of growth hormone (GH) concentration (ng/ml.). Time periods after injection of 2, 4, 5, and 6 hours are generally used to test the duration of the activity of the peptide to suppress circulating peripheral GH levels. Comparisons between control and experimental GH values at each time are evaluated by the Student "t" test and statistical significance (p) at the 0.05 level or lower is used as the index of activity.

C[C@@H](O)[C@@H]1NC(=O)[C@H](Cc2ccccc2)NC(=O)[C@H]([C@@H](C)O)NC(=O)[C@H](CCCCN)NC(=O)[C@@H](Cc2c[nH]c3ccccc23)NC(=O)[C@H](Cc2ccccc2)NC(=O)[C@H](Cc2ccccc2)NC(=O)[C@@H](Cc2c[nH]c3ccccc23)NC(=O)[C@@H](Cc2ccc(O)cc2)NC(=O)[C@@H](N)CSSC[C@@H](C(=O)O)NC(=O)[C@H](CO)NC1=O [B, L-Cysteinyl-D-Tyrosyl-D-Tryptophyl-L-Phenylalanyl-L-Phenylalanyl-D-Tryptophyl-L-Lysyl-L-Threonyl-L-Phenylalanyl-L-Threonyl-L-Seryl-L-Cysteine Cyclic (1-12)-Disulfide] (H-C[dY][dW]FF[dW]KTFTSC-OH; disulfide 1-12)
Glucagon (glucagon; 10 μg/kg. s.c.): 36 ± 4 pg/mL
Glucagon (glucagon; 100 μg/kg. s.c.): 5 ± 1 pg/mL
Glucagon (glucagon; 200 μg/kg. s.c.): 44 ± 9 pg/mL
Glucagon (glucagon; 300 μg/kg. s.c.): 38 ± 8 pg/mL
Glucagon (glucagon; 500 μg/kg. s.c.): 18 ± 4 pg/mL
GH (growth hormone; 10 μg/kg. s.c., 15 minutes after dose, arginine challenge): 125 ± 26 ng/mL
GH (growth hormone; 100 μg/kg. s.c., 15 minutes after dose, arginine challenge): 43 ± 7 ng/mL
GH (growth hormone; 500 μg/kg. s.c., 15 minutes after dose, arginine challenge): 38 ± 6 ng/mL
Insulin (insulin; 10 μg/kg. s.c.): 162 ± 13 μU/ml.
Insulin (insulin; 100 μg/kg. s.c.): 170 ± 15 μU/ml.
Insulin (insulin; 200 μg/kg. s.c.): 239 ± 17 μU/ml.
Insulin (insulin; 300 μg/kg. s.c.): 153 ± 9 μU/ml.
Insulin (insulin; 500 μg/kg. s.c.): 116 ± 8 μU/ml.
plasma growth hormone (GH) concentration, 2 Hr. (growth hormone (GH); 1 mg/kg. sc, nonfasted male rats, 2 Hr. after injection): 111 ± 14 ng/mL
plasma growth hormone (GH) concentration, 4 Hr. (growth hormone (GH); 1 mg/kg. sc, nonfasted male rats, 4 Hr. after injection): 67 ± 14 ng/mL
plasma growth hormone (GH) concentration, 5 Hr. (growth hormone (GH); 1 mg/kg. sc, nonfasted male rats, 5 Hr. after injection): 151 ± 18 ng/mL
plasma growth hormone (GH) concentration, 2 Hr. (second column headed 2 Hr.) (growth hormone (GH); 1 mg/kg. sc, nonfasted male rats, second 2 Hr. column of table 3): 133 ± 34 ng/mL

C[C@@H](O)[C@@H]1NC(=O)[C@H](Cc2ccccc2)NC(=O)[C@H]([C@@H](C)O)NC(=O)[C@H](CCCCN)NC(=O)[C@@H](Cc2c[nH]c3ccccc23)NC(=O)[C@H](Cc2ccccc2)NC(=O)[C@H](Cc2ccccc2)NC(=O)[C@@H](Cc2ccc(O)cc2)NC(=O)[C@@H](Cc2c[nH]cn2)NC(=O)[C@@H](N)CSSC[C@@H](C(=O)O)NC(=O)[C@H](CO)NC1=O [C, L-Cysteinyl-D-Histidyl-D-Tyrosyl-L-Phenylalanyl-L-Phenylalanyl-D-Tryptophyl-L-Lysyl-L-Threonyl-L-Phenylalanyl-L-Threonyl-L-Seryl-L-Cysteine Cyclic (1-12)-Disulfide] (H-C[dH][dY]FF[dW]KTFTSC-OH; disulfide 1-12)
Glucagon (glucagon; 10 μg/kg. s.c.): 165 ± 13 pg/mL
GH (growth hormone; 10 μg/kg. s.c., arginine challenge (table 5)): 149 ± 23
Insulin (insulin; 10 μg/kg. s.c.): 252 ± 41 μU/ml.
Insulin (insulin; 200 μg/kg. s.c.): 254 ± 31 μU/ml. and 273 ± 36 μU/ml.
GH, 2 Hours (growth hormone (GH); 1000 μg/kg. sc, rats): 34 ± 1 ng/mL
GH, 4 Hours (growth hormone (GH); 1000 μg/kg. sc, rats): 33 ± 2 ng/mL
GH, 5 Hours (growth hormone (GH); 1000 μg/kg. sc, rats, 5 hours): 51 ± 8 ng/mL
GH, 6 Hours (growth hormone (GH); 1000 μg/kg. sc, rats, 6 hours): 36 ± 3 ng/mL
GH, 7 Hours (growth hormone (GH); 1000 μg/kg. sc, rats, 7 hours): 37 ± 5 ng/mL
GH, 8 Hours (growth hormone (GH); 1000 μg/kg. sc, rats, 8 hours): 37 ± 6 ng/mL

C[C@@H](O)[C@@H]1NC(=O)[C@H](CCCCN)NC(=O)[C@@H](Cc2c[nH]c3ccccc23)NC(=O)[C@H](Cc2ccccc2)NC(=O)[C@H](Cc2ccccc2)NC(=O)[C@@H](Cc2c[nH]c3ccccc23)NC(=O)[C@@H](Cc2ccc(O)cc2)NC(=O)[C@@H](N)CSSC[C@H](C(=O)O)NC(=O)[C@H](CO)NC(=O)[C@H]([C@@H](C)O)NC(=O)[C@H](Cc2ccccc2)NC1=O [Compound I, L-Cysteinyl-D-Tyrosyl-D-Tryptophyl-L-Phenylalanyl-L-Phenylalanyl-D-Tryptophyl-L-Lysyl-L-Threonyl-L-Phenylalanyl-L-Threonyl-L-Seryl-D-Cysteine Cyclic (1-12)-Disulfide] (H-C[dY][dW]FF[dW]KTFTS[dC]-OH; disulfide 1-12)
Glucagon (glucagon; 200 μg/kg. s.c.): 13 ± 2 pg/mL
GH (growth hormone; 200 μg/kg. s.c., arginine challenge (table 5)): 57 ± 14
Insulin (insulin; 200 μg/kg. s.c.): 236 ± 27 μU/ml.
GH, 2 Hours (growth hormone (GH); 1000 μg/kg. sc, rats): 49 ± 5 ng/mL
GH, 4 Hours (growth hormone (GH); 1000 μg/kg. sc, rats): 86 ± 11 ng/mL
